Legend:
Test in all cases: KINOMEscan scanMAX
Assay type in all cases: binding
Details in all cases: 2000 nM; read-out: Percent Control
CAMK2D = CAMK2D (Homo sapiens (Human), UniProt Q13557)
PAK1 = PAK1 (Homo sapiens (Human), UniProt Q13153)
PIK3CA(M1043I) = PIK3CA(M1043I) (Homo sapiens (Human), UniProt P42336, M1043I)
MYO3A = MYO3A (Homo sapiens (Human), UniProt Q8NEV4)
ROS1 = ROS1 (Homo sapiens (Human), UniProt P08922)
RET(M918T) = RET(M918T) (Homo sapiens (Human), UniProt P07949, M918T)
BRSK1 = BRSK1 (Homo sapiens (Human), UniProt Q8TDC3)
TIE1 = TIE1 (Homo sapiens (Human), UniProt P35590)
WNK1 = WNK1 (Homo sapiens (Human), UniProt Q9H4A3)
NEK3 = NEK3 (Homo sapiens (Human), UniProt P51956)
Chain of NEK3 (P51956 whole entry): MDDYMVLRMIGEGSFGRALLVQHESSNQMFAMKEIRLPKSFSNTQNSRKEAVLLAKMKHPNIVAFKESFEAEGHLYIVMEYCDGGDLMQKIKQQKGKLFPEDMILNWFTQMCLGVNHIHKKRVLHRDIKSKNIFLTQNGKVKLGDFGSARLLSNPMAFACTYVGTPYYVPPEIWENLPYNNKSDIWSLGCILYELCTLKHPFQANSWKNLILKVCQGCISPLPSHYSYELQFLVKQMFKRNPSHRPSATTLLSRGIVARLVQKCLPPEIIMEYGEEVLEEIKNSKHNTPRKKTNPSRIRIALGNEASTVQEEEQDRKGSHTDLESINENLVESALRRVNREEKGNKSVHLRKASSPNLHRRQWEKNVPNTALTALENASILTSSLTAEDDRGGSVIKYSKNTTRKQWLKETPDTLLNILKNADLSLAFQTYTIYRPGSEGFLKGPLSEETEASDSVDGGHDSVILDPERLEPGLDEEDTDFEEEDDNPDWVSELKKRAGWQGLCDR

KIT-autoinhibited = KIT-autoinhibited (Homo sapiens (Human), UniProt P10721)
ERBB4 = ERBB4 (Homo sapiens (Human), UniProt Q15303)
KIT(V559D, T670I) = KIT(V559D, T670I) (Homo sapiens (Human), UniProt P10721, T670I/V559D)
[1] = target: ABL1(M351T)-phosphorylated (Homo sapiens (Human), UniProt P00519, M351T)
[2] = target: TYK2(JH1domain-catalytic) (Homo sapiens (Human), UniProt P29597)
Chain of TYK2(JH1domain-catalytic) (P29597 897-1176): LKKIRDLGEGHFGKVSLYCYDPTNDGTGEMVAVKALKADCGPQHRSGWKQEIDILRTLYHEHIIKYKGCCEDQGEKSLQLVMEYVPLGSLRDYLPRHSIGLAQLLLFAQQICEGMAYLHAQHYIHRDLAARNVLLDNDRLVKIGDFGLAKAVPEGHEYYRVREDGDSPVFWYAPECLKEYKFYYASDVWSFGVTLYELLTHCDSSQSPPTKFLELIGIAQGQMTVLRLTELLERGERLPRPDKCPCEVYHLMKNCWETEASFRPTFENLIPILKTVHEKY

HIPK1 = HIPK1 (Homo sapiens (Human), UniProt Q86Z02)
FLT1 = FLT1 (Homo sapiens (Human), UniProt P17948)
Chain of FLT1 (P17948 27-1338): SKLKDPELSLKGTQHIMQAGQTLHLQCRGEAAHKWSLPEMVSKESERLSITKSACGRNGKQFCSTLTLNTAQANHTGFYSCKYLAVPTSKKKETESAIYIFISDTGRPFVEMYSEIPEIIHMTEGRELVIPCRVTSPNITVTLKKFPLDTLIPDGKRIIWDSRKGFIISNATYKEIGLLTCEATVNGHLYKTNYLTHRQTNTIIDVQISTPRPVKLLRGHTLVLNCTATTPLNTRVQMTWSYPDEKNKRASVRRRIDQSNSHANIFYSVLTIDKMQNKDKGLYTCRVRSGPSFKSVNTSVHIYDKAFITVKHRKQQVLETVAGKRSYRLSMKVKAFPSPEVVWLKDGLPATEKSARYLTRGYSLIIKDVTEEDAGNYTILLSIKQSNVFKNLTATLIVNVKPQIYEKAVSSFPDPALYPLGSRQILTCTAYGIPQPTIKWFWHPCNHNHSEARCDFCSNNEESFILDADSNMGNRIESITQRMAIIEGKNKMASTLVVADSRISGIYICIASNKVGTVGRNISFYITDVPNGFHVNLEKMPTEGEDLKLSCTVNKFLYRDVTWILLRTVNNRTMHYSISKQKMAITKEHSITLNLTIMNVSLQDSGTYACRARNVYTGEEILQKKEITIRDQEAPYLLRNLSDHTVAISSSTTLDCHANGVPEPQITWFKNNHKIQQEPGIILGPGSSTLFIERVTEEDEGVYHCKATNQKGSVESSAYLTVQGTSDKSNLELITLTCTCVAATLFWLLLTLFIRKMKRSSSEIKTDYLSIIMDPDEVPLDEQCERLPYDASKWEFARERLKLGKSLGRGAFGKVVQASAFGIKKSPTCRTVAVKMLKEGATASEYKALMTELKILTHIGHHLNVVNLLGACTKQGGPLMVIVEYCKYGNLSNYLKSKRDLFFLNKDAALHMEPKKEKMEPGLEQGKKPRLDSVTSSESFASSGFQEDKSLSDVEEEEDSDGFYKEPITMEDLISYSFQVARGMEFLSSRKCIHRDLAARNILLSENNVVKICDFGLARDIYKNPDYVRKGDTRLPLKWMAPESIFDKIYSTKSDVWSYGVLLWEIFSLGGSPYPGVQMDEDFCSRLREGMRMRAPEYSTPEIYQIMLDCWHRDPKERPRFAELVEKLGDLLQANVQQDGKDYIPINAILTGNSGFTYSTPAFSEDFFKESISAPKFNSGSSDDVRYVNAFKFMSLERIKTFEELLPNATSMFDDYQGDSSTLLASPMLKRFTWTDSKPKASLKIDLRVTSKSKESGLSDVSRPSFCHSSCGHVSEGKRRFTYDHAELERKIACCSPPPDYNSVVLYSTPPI

CDK9 = CDK9 (Homo sapiens (Human), UniProt P50750)
PIK3CD = PIK3CD (Homo sapiens (Human), UniProt O00329)
CSF1R = CSF1R (Homo sapiens (Human), UniProt P07333)
Chain of CSF1R (P07333 20-972): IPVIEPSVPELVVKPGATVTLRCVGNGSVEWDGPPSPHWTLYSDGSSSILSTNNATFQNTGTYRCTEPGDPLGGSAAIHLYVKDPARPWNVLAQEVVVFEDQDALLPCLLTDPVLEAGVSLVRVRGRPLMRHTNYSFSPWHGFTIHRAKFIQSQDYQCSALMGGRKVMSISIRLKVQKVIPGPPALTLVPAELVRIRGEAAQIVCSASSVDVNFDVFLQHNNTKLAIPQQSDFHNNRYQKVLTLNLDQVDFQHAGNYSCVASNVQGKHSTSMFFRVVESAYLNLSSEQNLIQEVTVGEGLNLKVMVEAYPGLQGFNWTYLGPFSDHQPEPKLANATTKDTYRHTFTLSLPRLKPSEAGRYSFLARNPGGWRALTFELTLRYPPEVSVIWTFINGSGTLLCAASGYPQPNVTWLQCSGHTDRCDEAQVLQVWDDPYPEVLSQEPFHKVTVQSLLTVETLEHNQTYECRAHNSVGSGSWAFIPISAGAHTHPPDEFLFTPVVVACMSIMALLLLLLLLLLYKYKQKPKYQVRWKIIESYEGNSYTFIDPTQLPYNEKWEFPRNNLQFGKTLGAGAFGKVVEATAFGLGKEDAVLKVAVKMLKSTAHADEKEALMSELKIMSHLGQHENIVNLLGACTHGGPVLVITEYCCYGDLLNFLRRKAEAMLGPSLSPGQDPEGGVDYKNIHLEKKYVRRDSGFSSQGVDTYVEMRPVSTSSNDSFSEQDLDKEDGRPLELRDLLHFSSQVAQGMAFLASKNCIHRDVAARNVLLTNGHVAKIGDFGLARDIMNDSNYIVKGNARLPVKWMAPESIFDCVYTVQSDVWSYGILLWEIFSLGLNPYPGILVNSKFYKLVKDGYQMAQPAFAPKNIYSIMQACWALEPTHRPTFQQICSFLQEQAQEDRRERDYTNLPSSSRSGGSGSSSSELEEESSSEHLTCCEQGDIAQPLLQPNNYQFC

PDGFRB = PDGFRB (Homo sapiens (Human), UniProt P09619)
CAMK1 = CAMK1 (Homo sapiens (Human), UniProt Q14012)
PKAC-alpha (PRKACA) = PKAC-alpha (PRKACA) (Homo sapiens (Human), UniProt P17612)
[3] = target: ABL1(F317L)-phosphorylated (Homo sapiens (Human), UniProt P00519, F317L)
CAMK2B = CAMK2B (Homo sapiens (Human), UniProt Q13554)
ITK = ITK (Homo sapiens (Human), UniProt Q08881)
AURKB = AURKB (Homo sapiens (Human), UniProt Q96GD4)
CSNK1G3 = CSNK1G3 (Homo sapiens (Human), UniProt Q9Y6M4)
RIOK1 = RIOK1 (Homo sapiens (Human), UniProt Q9BRS2)
ACVRL1 = ACVRL1 (Homo sapiens (Human), UniProt P37023)
[4] = target: PFCDPK1(P.falciparum) (CDPK1) (Plasmodium falciparum (isolate 3D7), UniProt P62344)
NIM1 (MGC42105) = NIM1 (MGC42105) (Homo sapiens (Human), UniProt Q8IY84)
NDR1 (STK38) = NDR1 (STK38) (Homo sapiens (Human), UniProt Q15208)
Chain of NDR1 (STK38) (Q15208 whole entry): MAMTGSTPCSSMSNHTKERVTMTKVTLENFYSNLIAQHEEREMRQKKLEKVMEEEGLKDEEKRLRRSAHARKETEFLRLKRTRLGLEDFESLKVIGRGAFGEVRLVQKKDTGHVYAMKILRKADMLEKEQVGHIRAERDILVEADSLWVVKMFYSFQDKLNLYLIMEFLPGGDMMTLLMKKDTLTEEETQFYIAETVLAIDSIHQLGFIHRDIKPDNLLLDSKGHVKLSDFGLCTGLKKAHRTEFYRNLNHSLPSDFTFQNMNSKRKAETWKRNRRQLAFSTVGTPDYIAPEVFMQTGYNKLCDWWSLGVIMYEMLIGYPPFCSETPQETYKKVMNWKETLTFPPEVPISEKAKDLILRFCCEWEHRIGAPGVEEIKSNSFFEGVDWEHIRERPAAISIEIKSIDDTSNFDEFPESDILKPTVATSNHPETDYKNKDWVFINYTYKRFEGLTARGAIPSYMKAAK

FGFR4 = FGFR4 (Homo sapiens (Human), UniProt P22455)
[5] = target: RPS6KA5(Kin.Dom.1-N-terminal) (Homo sapiens (Human), UniProt O75582)
BRSK2 = BRSK2 (Homo sapiens (Human), UniProt Q8IWQ3)
PIK3CB = PIK3CB (Homo sapiens (Human), UniProt P42338)
RIOK3 = RIOK3 (Homo sapiens (Human), UniProt O14730)
TRKB (NTRK2) = TRKB (NTRK2) (Homo sapiens (Human), UniProt Q16620)
Chain of TRKB (NTRK2) (Q16620 32-822): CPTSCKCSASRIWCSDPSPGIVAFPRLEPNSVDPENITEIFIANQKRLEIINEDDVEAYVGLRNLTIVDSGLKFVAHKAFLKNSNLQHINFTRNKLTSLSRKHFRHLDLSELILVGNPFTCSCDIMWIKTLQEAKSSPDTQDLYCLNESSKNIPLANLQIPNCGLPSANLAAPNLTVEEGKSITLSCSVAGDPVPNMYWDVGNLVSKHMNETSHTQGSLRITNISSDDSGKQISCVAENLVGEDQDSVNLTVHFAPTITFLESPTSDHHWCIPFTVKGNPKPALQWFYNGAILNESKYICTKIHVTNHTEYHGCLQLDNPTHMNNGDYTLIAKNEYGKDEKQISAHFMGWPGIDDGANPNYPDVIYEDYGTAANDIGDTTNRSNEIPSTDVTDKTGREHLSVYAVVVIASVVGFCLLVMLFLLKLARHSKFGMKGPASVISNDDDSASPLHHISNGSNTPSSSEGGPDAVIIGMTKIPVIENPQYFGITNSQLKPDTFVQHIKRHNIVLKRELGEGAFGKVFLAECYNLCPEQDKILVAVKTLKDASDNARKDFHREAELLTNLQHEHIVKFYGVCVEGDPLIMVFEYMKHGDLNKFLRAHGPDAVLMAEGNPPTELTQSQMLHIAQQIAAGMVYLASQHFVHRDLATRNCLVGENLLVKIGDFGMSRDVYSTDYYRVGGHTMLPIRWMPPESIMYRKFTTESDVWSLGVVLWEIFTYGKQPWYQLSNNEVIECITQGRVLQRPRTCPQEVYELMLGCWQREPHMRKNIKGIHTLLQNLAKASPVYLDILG

Chain of CAMK2D (Q13557 whole entry): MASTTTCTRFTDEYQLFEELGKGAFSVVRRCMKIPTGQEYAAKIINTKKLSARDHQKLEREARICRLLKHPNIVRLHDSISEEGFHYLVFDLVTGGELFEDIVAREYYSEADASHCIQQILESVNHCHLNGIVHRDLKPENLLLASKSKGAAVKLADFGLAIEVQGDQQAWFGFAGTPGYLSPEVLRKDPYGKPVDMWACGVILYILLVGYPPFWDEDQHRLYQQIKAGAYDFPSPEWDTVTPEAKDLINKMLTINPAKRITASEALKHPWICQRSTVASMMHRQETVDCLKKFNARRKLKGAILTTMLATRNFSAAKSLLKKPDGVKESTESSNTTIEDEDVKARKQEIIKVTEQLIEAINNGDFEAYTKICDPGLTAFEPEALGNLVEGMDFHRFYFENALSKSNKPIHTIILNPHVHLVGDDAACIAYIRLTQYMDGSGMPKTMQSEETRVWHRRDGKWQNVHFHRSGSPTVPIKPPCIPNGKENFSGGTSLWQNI

Structure (SMILES): CN1CCN(C(=O)c2ccc3cc(CCNc4ccnc5ccc(C#N)cc45)ccc3c2)CC1 [compound 6148, 4-((2-(6-(4-methylpiperazine-1-carbonyl)naphthalen-2-yl)ethyl)amino)quinoline-6-carbonitrile]
- remaining binding at 2 µM (CAMK2D): 94%
- remaining binding at 2 µM (PAK1): 92%
- remaining binding at 2 µM (PIK3CA(M1043I)): 80%
- remaining binding at 2 µM (MYO3A): 100%
- remaining binding at 2 µM (ROS1): 91%
- remaining binding at 2 µM (RET(M918T)): 85%
- remaining binding at 2 µM (BRSK1): 100%
- remaining binding at 2 µM (TIE1): 85%
- remaining binding at 2 µM (WNK1): 72%
- remaining binding at 2 µM (NEK3): 60%
- remaining binding at 2 µM (KIT-autoinhibited): 88%
- remaining binding at 2 µM (ERBB4): 95%
- remaining binding at 2 µM (KIT(V559D, T670I)): 90%
- remaining binding at 2 µM [1]: 80%
- remaining binding at 2 µM [2]: 62%
- remaining binding at 2 µM (HIPK1): 73%
- remaining binding at 2 µM (FLT1): 99%
- remaining binding at 2 µM (CDK9): 97%
- remaining binding at 2 µM (PIK3CD): 61%
- remaining binding at 2 µM (CSF1R): 85%
- remaining binding at 2 µM (PDGFRB): 94%
- remaining binding at 2 µM (CAMK1): 84%
- remaining binding at 2 µM (PKAC-alpha (PRKACA)): 93%
- remaining binding at 2 µM [3]: 74%
- remaining binding at 2 µM (CAMK2B): 97%
- remaining binding at 2 µM (ITK): 93%
- remaining binding at 2 µM (AURKB): 75%
- remaining binding at 2 µM (CSNK1G3): 76%
- remaining binding at 2 µM (RIOK1): 94%
- remaining binding at 2 µM (ACVRL1): 93%
- remaining binding at 2 µM [4]: 83%
- remaining binding at 2 µM (NIM1 (MGC42105)): 67%
- remaining binding at 2 µM (NDR1 (STK38)): 79%
- remaining binding at 2 µM (FGFR4): 96%
- remaining binding at 2 µM [5]: 86%
- remaining binding at 2 µM (BRSK2): 96%
- remaining binding at 2 µM (PIK3CB): 64%
- remaining binding at 2 µM (RIOK3): 85%
- remaining binding at 2 µM (TRKB (NTRK2)): 57%
